Experimental data taken from patent US20230002357A1, “7-PYRIMIDINE-2-YL-OXY-INDAZOLE DERIVATIVES AND THEIR USE AS HERBICIDES” (SYNGENTA CROP PROTECTION AG, priority 2019, published 2023).

What was measured:
Type in all cases: in vivo
Settings in all cases: 250 g/ha, evaluated after 13 days
[1] = test system: Setaria faberi (SETFA); experiment: Pre-emergence Test, glasshouse, SETFA
Description: (§1) Seeds of a variety of test species are sown in standard soil in pots Amaranthus retoflexus (AMARE), Echinochloa crus-galli (ECHCG), Setaria faberi (SETFA)). After cultivation for one day (pre-emergence) or after 8 days cultivation (post-emergence) under controlled conditions in a glasshouse (at 24/16° C., day/night; 14 hours light; 65% humidity), the plants are sprayed with an aqueous spray solution derived from the formulation of the technical active ingredient in acetone/water (50:50) solution containing 0.5% Tween™ 20 (polyoxyethelyene sorbitan monolaurate, CAS RN 9005-64-5). Compounds are applied at 250 g/ha unless otherwise stated. The test plants are then grown in a glasshouse under controlled conditions in a glasshouse (at 24/16° C., day/night; 14 hours light; 65% humidity) and watered twice daily. After 13 days for pre- and post-emergence, the test is evaluated for the percentage damage caused to the plant. The biological activities are shown in the following table on a five-point scale (5=81-100%; 4=61-80%; 3=41-60%; 2=21-40%; 1=0-20%).

[2] = test system: Amaranthus retoflexus (AMARE); experiment: Post-emergence Test, glasshouse, AMARE
Description: as §1

[3] = test system: ABUTH; experiment: Post-emergence Test, glasshouse, ABUTH
Description: as §1

[4] = test system: Setaria faberi (SETFA); experiment: Post-emergence Test, glasshouse, SETFA
Description: as §1

[5] = test system: Echinochloa crus-galli (ECHCG); experiment: Pre-emergence Test, glasshouse, ECHCG
Description: as §1

[6] = test system: Echinochloa crus-galli (ECHCG); experiment: Post-emergence Test, glasshouse, ECHCG
Description: as §1

[7] = test system: IPOHE; experiment: Post-emergence Test, glasshouse, IPOHE
Description: as §1

[8] = test system: Amaranthus retoflexus (AMARE); experiment: Pre-emergence Test, glasshouse, AMARE
Description: as §1

[9] = test system: IPOHE; experiment: Pre-emergence Test, glasshouse, IPOHE
Description: as §1

[10] = test system: ABUTH; experiment: Pre-emergence Test, glasshouse, ABUTH
Description: as §1

Row | SMILES | percentage damage caused to the plant, five-point scale, SETFA [1] | percentage damage caused to the plant, five-point scale, AMARE [2] | percentage damage caused to the plant, five-point scale, ABUTH [3] | percentage damage caused to the plant, five-point scale, SETFA [4] | percentage damage caused to the plant, five-point scale, ECHCG [5] | percentage damage caused to the plant, five-point scale, ECHCG [6] | percentage damage caused to the plant, five-point scale, IPOHE [7] | percentage damage caused to the plant, five-point scale, AMARE [8] | percentage damage caused to the plant, five-point scale, IPOHE [9] | percentage damage caused to the plant, five-point scale, ABUTH [10]
1 | FC(F)(F)CCCn1nc(Br)c2c(Br)ccc(Oc3ncc(Cl)cn3)c21 [Compound 1.015] | 1 (1=0-20%) | 4 (4=61-80%) | 4 (4=61-80%) | 2 (2=21-40%) | 1 (1=0-20%) | 2 (2=21-40%) | 1 (1=0-20%) | 2 (2=21-40%) | 1 (1=0-20%) | 1 (1=0-20%)
2 | Fc1cc(Cl)cnc1Oc1cccc2cnn(CCCC(F)(F)F)c12 [Compound 1.002] | 2 (2=21-40%) | 2 (2=21-40%) | 2 (2=21-40%) | 3 (3=41-60%) | 2 (2=21-40%) | 3 (3=41-60%) | 1 (1=0-20%) | 1 (1=0-20%) | 1 (1=0-20%) | 1 (1=0-20%)
3 | FC(F)(F)CCCn1nnc2c(Cl)ccc(Oc3ncc(Cl)cn3)c21 [Compound 1.072] | 4 (4=61-80%) | 4 (4=61-80%) | 1 (1=0-20%) | 3 (3=41-60%) | 2 (2=21-40%) | 3 (3=41-60%) | 3 (3=41-60%) | 4 (4=61-80%) | 1 (1=0-20%) | 1 (1=0-20%)
4 | FC(F)(F)CCCn1ncc2cccc(Oc3ncc(Cl)cn3)c21 [Compound 1.001, 7-(5-chloropyrimidin-2-yl)oxy-1-(4,4,4-trifluorobutyl)indazole] | 5 (5=81-100%) | 2 (2=21-40%) | 4 (4=61-80%) | 4 (4=61-80%) | 5 (5=81-100%) | 3 (3=41-60%) | 1 (1=0-20%) | 4 (4=61-80%) | 1 (1=0-20%) | 4 (4=61-80%)
5 | N#Cc1cc(Cl)cnc1Oc1cccc2cnn(CCCC(F)(F)F)c12 [Compound 1.014] | 4 (4=61-80%) | 4 (4=61-80%) | 4 (4=61-80%) | 3 (3=41-60%) | 4 (4=61-80%) | 2 (2=21-40%) | 2 (2=21-40%) | 4 (4=61-80%) | 1 (1=0-20%) | 1 (1=0-20%)
6 | CCCCCCn1nc(Cl)c2cccc(Oc3ncc(Cl)cn3)c21 [Compound 1.058] | 3 (3=41-60%) | 4 (4=61-80%) | 3 (3=41-60%) | 2 (2=21-40%) | 3 (3=41-60%) | 3 (3=41-60%) | 2 (2=21-40%) | 2 (2=21-40%) | 1 (1=0-20%) | 2 (2=21-40%)
7 | N#Cc1ccc2c(Cl)nn(CCCC(F)(F)F)c2c1Oc1ncc(Cl)cn1 [Compound 1.041, 3-chloro-7-(5-chloropyrimidin-2-yl)oxy-1-(4,4,4-trifluorobutyl)indazole-6-carbonitrile] | 1 (1=0-20%) | 1 (1=0-20%) | 1 (1=0-20%) | 1 (1=0-20%) | 1 (1=0-20%) | 1 (1=0-20%) | 1 (1=0-20%) | 1 (1=0-20%) | 1 (1=0-20%) | 1 (1=0-20%)
8 | CCCCCn1nc(Cl)c2cccc(Oc3ncc(Cl)cn3)c21 [Compound 1.055] | 4 (4=61-80%) | 4 (4=61-80%) | 3 (3=41-60%) | 3 (3=41-60%) | 4 (4=61-80%) | 3 (3=41-60%) | 2 (2=21-40%) | 4 (4=61-80%) | 1 (1=0-20%) | 1 (1=0-20%)
9 | N#Cc1nn(CCCC(F)(F)F)c2c(Oc3ncc(Cl)cn3)cccc12 [Compound 1.007, 7-(5-chloropyrimidin-2-yl)oxy-1-(4,4,4-trifluorobutyl)indazole-3-carbonitrile] | 5 (5=81-100%) | 5 (5=81-100%) | 5 (5=81-100%) | 5 (5=81-100%) | 5 (5=81-100%) | 5 (5=81-100%) | 4 (4=61-80%) | 5 (5=81-100%) | 2 (2=21-40%) | 3 (3=41-60%)
10 | Fc1cc(Cl)cnc1Oc1cccc2c(Cl)nn(CCCC(F)(F)F)c12 [Compound 1.032] | 4 (4=61-80%) | 5 (5=81-100%) | 3 (3=41-60%) |  | 3 (3=41-60%) | 3 (3=41-60%) | 3 (3=41-60%) | 3 (3=41-60%) | 1 (1=0-20%) | 1 (1=0-20%)
